Experimental data from patent US10173991B2, “Sulfone amide linked benzothiazole inhibitors of endothelial lipase” (BRISTOL-MYERS SQUIBB COMPANY, priority 2014, dated 2019).

Target: Endothelial lipase (EL) (Homo sapiens (Human), UniProt Q9Y5X9)
Test: Endothelial lipase (EL) enzymatic assay with fluorescent substrate A10070 in DMPG vesicles
Type: biochemical
How it was run: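 Compounds were preincubated with enzyme for 30 min at 37° C before FRET-substrate vesicles (A10070 in DMPG, 0.11 mole fraction) were added. Reaction rates were obtained from the 300–900 sec slope of fluorescence at 490/530 nm.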

Sequence of Endothelial lipase (EL) (Q9Y5X9 21-500): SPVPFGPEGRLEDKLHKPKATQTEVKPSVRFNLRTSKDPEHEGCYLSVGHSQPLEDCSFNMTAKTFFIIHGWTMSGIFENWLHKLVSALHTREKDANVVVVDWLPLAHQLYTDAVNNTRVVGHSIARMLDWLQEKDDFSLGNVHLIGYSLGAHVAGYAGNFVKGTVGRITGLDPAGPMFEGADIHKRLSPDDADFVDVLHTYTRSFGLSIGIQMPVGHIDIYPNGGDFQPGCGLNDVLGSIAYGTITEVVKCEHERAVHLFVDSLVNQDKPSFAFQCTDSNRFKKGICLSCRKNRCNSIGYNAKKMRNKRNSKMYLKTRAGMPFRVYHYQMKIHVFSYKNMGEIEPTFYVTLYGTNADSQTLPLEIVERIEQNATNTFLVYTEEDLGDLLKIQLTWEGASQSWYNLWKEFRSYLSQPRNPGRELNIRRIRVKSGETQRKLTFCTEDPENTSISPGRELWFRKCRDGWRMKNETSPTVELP

COCCS(=O)(=O)C(C(=O)NCC(=O)NC1CC1)c1nc2cc(-c3cncc(OC)c3)ccc2s1 (stereo not shown) [Example 64, N-[(cyclopropyl-carbamoyl)methyl]-2-(2-methoxyethane-sulfonyl)-2-[5-(5-methoxypyridin-3-yl)-1,3-benzothiazol-2-yl]acetamide]
IC50: 11 nM

COCCS(=O)(=O)C(C(=O)NCC(=O)NC1CC1)c1nc2cc(-c3ccc(C(F)(F)F)nc3)ccc2s1 (stereo not shown) [Example 66]
IC50: 12 nM

COCCS(=O)(=O)C(C(=O)NCC(=O)NC1CC1)c1nc2cc(-c3cnnc(C)c3)ccc2s1 (stereo not shown) [Example 67, N-[(cyclopropyl-carbamoyl)methyl]-2-(2-methoxyethane-sulfonyl)-2-[5-(6-methylpyridazin-4-yl)-1,3-benzothiazol-2-yl]acetamide]
IC50: 16 nM

COCCS(=O)(=O)C(C(=O)NCC(=O)NC1CC1)c1nc2cc(-c3ccc(F)nc3F)ccc2s1 (stereo not shown) [Example 68, N-[(cyclopropyl-carbamoyl)methyl]-2-[5-(2,6-difluoropyridin-3-yl)-1,3-benzothiazol-2-yl]-2-(2-methoxyethane-sulfonyl) acetamide]
IC50: 19 nM

CCOc1ccc(-c2ccc3sc(C(C(=O)NCC(=O)NC4CC4)S(=O)(=O)CCOC)nc3c2)cn1 (stereo not shown) [Example 69, N-[(cyclopropyl-carbamoyl)methyl]-2-[5-(6-ethoxypyridin-3-yl)-1,3-benzothiazol-2-yl]-2-(2-methoxyethane-sulfonyl) acetamide]
IC50: 23 nM

COCCS(=O)(=O)C(C(=O)NCC(=O)NC1CC1)c1nc2cc(-c3ccnc(C)c3)ccc2s1 (stereo not shown) [Example 70, N-[(cyclopropyl-carbamoyl)methyl]-2-(2-methoxyethane-sulfonyl)-2-[5-(2-methylpyridin-4-yl)-1,3-benzothiazol-2-yl]acetamide]
IC50: 24 nM

COCCS(=O)(=O)C(C(=O)NCC(=O)NC1CC1)c1nc2cc(-c3ccc(N4CCCC4)nc3)ccc2s1 (stereo not shown) [Example 71, N-[(cyclopropyl-carbamoyl)methyl]-2-(2-methoxyethane-sulfonyl)-2-{5-[6-(pyaolidin-1-yl)pyridin-3-yl]-1,3-benzothiazol-2-yl} acetamide]
IC50: 25 nM

COCCS(=O)(=O)C(C(=O)NCC(=O)NC1CC1)c1nc2cc(-c3ccc(Cl)nc3)ccc2s1 (stereo not shown) [Example 72, 2-[5-(6-chloropyridin-3-yl)-1,3-benzothiazol-2-yl]-N-[(cyclopropyl-carbamoyl)methyl]-2-(2-methoxyethane-sulfonyl) acetamide]
IC50: 25 nM

COCCS(=O)(=O)C(C(=O)NCC(=O)NC1CC1)c1nc2cc(-c3ccncc3F)ccc2s1 (stereo not shown) [Example 73, N-[(cyclopropyl-carbamoyl)methyl]-2-[5-(3-fluoropyridin-4-yl)-1,3-benzothiazol-2-yl]-2-(2-methoxyethane-sulfonyl) acetamide]
IC50: 28 nM

COCCS(=O)(=O)C(C(=O)NCC(=O)NC1CC1)c1nc2cc(-c3ccnc(OC)c3)ccc2s1 (stereo not shown) [Example 74, N-[(cyclopropyl-carbamoyl)methyl]-2-(2-methoxyethane-sulfonyl)-2-[5-(2-methoxypyridin-4-yl)-1,3-benzothiazol-2-yl]acetamide]
IC50: 31 nM

COCCS(=O)(=O)C(C(=O)NCC(=O)NC1CC1)c1nc2cc(-c3cncc(F)c3)ccc2s1 (stereo not shown) [Example 75, N-[(cyclopropyl-carbamoyl)methyl]-2-[5-(5-fluoropyridin-3-yl)-1,3-benzothiazol-2-yl]-2-(2-methoxyethane-sulfonyl) acetamide]
IC50: 31 nM

COCCS(=O)(=O)C(C(=O)NCC(=O)NC1CC1)c1nc2cc(-c3ccnc(F)c3)ccc2s1 (stereo not shown) [Example 76, N-[(cyclopropyl-carbamoyl)methyl]-2-[5-(2-fluoropyridin-4-yl)-1,3-benzothiazol-2-yl]-2-(2-methoxyethane-sulfonyl)acetamide]
IC50: 32 nM

COCCS(=O)(=O)C(C(=O)NCC(=O)NC1CC1)c1nc2cc(-c3cnc(F)c(C)c3)ccc2s1 (stereo not shown) [Example 78, N-[(cyclopropyl-carbamoyl)methyl]-2-[5-(6-fluoro-5-methylpyridin-3-yl)-1,3-benzothiazol-2-yl]-2-(2-methoxyethane-sulfonyl) acetamide]
IC50: 38 nM

COCCS(=O)(=O)C(C(=O)NCC(=O)NC1CC1)c1nc2cc(-c3ccncc3)ccc2s1 (stereo not shown) [Example 79, N-[(cyclopropyl-carbamoyl)methyl]-2-(2-methoxyethane-sulfonyl)-2-[5-(pyridin-4-yl)-1,3-benzothiazol-2-yl]acetamide]
IC50: 40 nM

COCCS(=O)(=O)C(C(=O)NCC(=O)NC1CC1)c1nc2cc(-c3ccncc3Cl)ccc2s1 (stereo not shown) [Example 80, 2-[5-(3-chloropyridin-4-yl)-1,3-benzothiazol-2-yl]-N-[(cyclopropyl-carbamoyl)methyl]-2-(2-methoxyethane-sulfonyl) acetamide]
IC50: 49 nM

COCCS(=O)(=O)C(C(=O)NCC(=O)NC1CC1)c1nc2cc(-c3cnc(F)cc3C)ccc2s1 (stereo not shown) [Example 81, N-[(cyclopropyl-carbamoyl)methyl]-2-[5-(6-fluoro-4-methylpyridin-3-yl)-1,3-benzothiazol-2-yl]-2-(2-methoxyethane-sulfonyl) acetamide]
IC50: 58 nM

COCCS(=O)(=O)C(C(=O)NCC(=O)NC1CC1)c1nc2cc(-c3cccnc3F)ccc2s1 (stereo not shown) [Example 82, N-[(cyclopropyl-carbamoyl)methyl]-2-[5-(2-fluoropyridin-3-yl)-1,3-benzothiazol-2-yl]-2-(2-methoxyethane-sulfonyl) acetamide]
IC50: 61 nM

COCCS(=O)(=O)C(C(=O)NCC(=O)NC1CC1)c1nc2cc(-c3ccc(Cl)cn3)ccc2s1 (stereo not shown) [Example 83, 2-[5-(5-chloropyridin-2-yl)-1,3-benzothiazol-2-yl]-N-[(cyclopropyl-carbamoyl)methyl]-2-(2-methoxyethane-sulfonyl)acetamide]
IC50: 71 nM

COCCS(=O)(=O)C(C(=O)NCC(=O)NC1CC1)c1nc2cc(-c3cccc(OC)c3)ccc2s1 (stereo not shown) [Example 84, N-[(cyclopropyl-carbamoyl)methyl]-2-(2-methoxyethane-sulfonyl)-2-[5-(3-methoxyphenyl)-1,3-benzothiazol-2-yl]acetamide]
IC50: 82 nM

COCCS(=O)(=O)C(C(=O)NCC(=O)NC1CC1)c1nc2cc(-c3cccnc3)ccc2s1 (stereo not shown) [Example 85, N-[(cyclopropyl-carbamoyl)methyl]-2-(2-methoxyethane-sulfonyl)-2-[5-(pyridin-3-yl)-1,3-benzothiazol-2-yl]acetamide]
IC50: 85 nM

COCCS(=O)(=O)C(C(=O)NCC(=O)NC1CC1)c1nc2cc(-c3cncnc3C(C)C)ccc2s1 (stereo not shown) [Example 86, N-[(cyclopropyl-carbamoyl)methyl]-2-(2-methoxyethane-sulfonyl)-2-{5-[4-(propan-2-yl)pyrimidin-5-yl]-1,3-benzothiazol-2-yl}acetamide]
IC50: 293 nM

CCOc1ncccc1-c1ccc2sc(C(C(=O)NCC(=O)NC3CC3)S(=O)(=O)CCOC)nc2c1 (stereo not shown) [Example 87, N-[(cyclopropyl-carbamoyl)methyl]-2-[5-(2-ethoxypyridin-3-yl)-1,3-benzothiazol-2-yl]-2-(2-methoxyethane-sulfonyl) acetamide]
IC50: 346 nM

COCCS(=O)(=O)C(C(=O)NCC(=O)NC1CC1)c1nc2cc(-c3ccc(F)nc3C)ccc2s1 (stereo not shown) [Example 88, N-[(cyclopropyl-carbamoyl)methyl]-2-[5-(6-fluoro-2-methylpyridin-3-yl)-1,3-benzothiazol-2-yl]-2-(2-methoxyethane-sulfonyl) acetamide]
IC50: 82 nM

COCCS(=O)(=O)C(C(=O)NCC(=O)NC1CC1)c1nc2cc(-c3cccc(F)n3)ccc2s1 (stereo not shown) [Example 89, N-[(cyclopropyl-carbamoyl)methyl]-2-[5-(6-fluoropyridin-2-yl)-1,3-benzothiazol-2-yl]-2-(2-methoxyethane-sulfonyl) acetamide]
IC50: 171 nM

COCCS(=O)(=O)C(C(=O)NCC(=O)NC1CC1)c1nc2cc(-c3ccc(F)cn3)ccc2s1 (stereo not shown) [Example 90, N-[(cyclopropyl-carbamoyl)methyl]-2-[5-(5-fluoropyridin-2-yl)-1,3-benzothiazol-2-yl]-2-(2-methoxyethane-sulfonyl) acetamide]
IC50: 274 nM

COCCS(=O)(=O)C(C(=O)NCC(=O)NC1CC1)c1nc2cc(-c3cccnc3C)ccc2s1 (stereo not shown) [Example 91, N-[(cyclopropyl-carbamoyl)methyl]-2-(2-methoxyethane-sulfonyl)-2-[5-(2-methylpyridin-3-yl)-1,3-benzothiazol-2-yl]acetamide]
IC50: 18 nM

COCCS(=O)(=O)C(C(=O)NCC(=O)NC1CC1)c1nc2cc(-c3c(C)ccnc3F)ccc2s1 (stereo not shown) [Example 92, N-[(cyclopropyl-carbamoyl)methyl]-2-[5-(2-fluoro-4-methylpyridin-3-yl)-1,3-benzothiazol-2-yl]-2-(2-methoxyethane-sulfonyl) acetamide]
IC50: 77 nM

COCCS(=O)(=O)C(C(=O)NCC(=O)NC1CC1)c1nc2ccc(-c3ccc(-c4ncco4)cc3)cc2s1 (stereo not shown) [Example 93, N-[(cyclopropyl-carbamoyl)methyl]-2-(2-methoxyethane-sulfonyl)-2-{6[4-(1,3-oxazol-2-yl)phenyl]-1,3-benzothiazol-2-yl} acetamide]
IC50: 1 nM

COCCS(=O)(=O)C(C(=O)NCC(=O)NC1CC1)c1nc2cc(Cl)c(-c3ccc(NC(=O)OC)cc3)cc2s1 (stereo not shown) [Example 94, methyl N-{4-[5-chloro-2-({[(cyclopropyl-carbamoyl)methyl]carbamoyl}(2-methoxyethane-sulfonyl)methyl)-1,3-benzothiazol-6-yl]phenyl} carbamate]
IC50: 2 nM

COC(=O)Nc1ccc(-c2ccc3nc(C(C(=O)NCC(=O)NC4CC4)S(C)(=O)=O)sc3c2)cc1 (stereo not shown) [Example 95, methyl N-{4-[2-({[(cyclopropyl-carbamoyl)methyl]carbamoyl} (methanesulfonyl)methyl)-1,3-benzothiazol-6-yl]phenyl}carbamate]
IC50: 2 nM

COCCS(=O)(=O)C(C(=O)NCC(=O)NC1CC1)c1nc2cc(Cl)c(-c3ccc(NC(C)=O)cc3)cc2s1 (stereo not shown) [Example 96, 2-[5-chloro-6-(4-acetamidophenyl)-1,3-benzothiazol-2-yl]-N-[(cyclopropyl-carbamoyl)methyl]-2-(2-methoxyethane-sulfonyl) acetamide]
IC50: 2 nM
